Experiments:
[1] = molecular target: T1, human-derived PPARγ ligand-binding domain (Homo sapiens, UniProt P37231); experiment: PPARγ activation test (GAL4 chimera / luciferase reporter in CV-1 cells); type: cell-based; settings: for PPARγ ligand activity, ratio (%) of the activity of each synthesized product to the activity of the control substance (DMSO): control = 100
T1 construct: expressed in transfected cells; host or cells: CV-1 cells (African green monkey kidney-derived)
T1 sequence (P37231 238-503 limits assumed): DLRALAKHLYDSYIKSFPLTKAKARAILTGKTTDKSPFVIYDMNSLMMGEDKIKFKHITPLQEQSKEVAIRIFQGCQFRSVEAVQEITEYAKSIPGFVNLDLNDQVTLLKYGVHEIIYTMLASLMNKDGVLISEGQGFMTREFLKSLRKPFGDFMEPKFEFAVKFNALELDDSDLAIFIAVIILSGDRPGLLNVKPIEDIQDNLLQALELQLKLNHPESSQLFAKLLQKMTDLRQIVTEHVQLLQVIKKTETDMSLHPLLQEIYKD
Experimental: A measurement method for the PPAR activation test in Examples below were conducted as described below.
(1) PPARγ Activation Test
A plasmid pM-PPARγ for the expression of a chimeric protein composed of a human-derived PPARγ ligand-binding domain and a DNA-binding domain of a yeast-derived GAL4 transcription factor, and a plasmid p4×UASg-tk-luc containing a Cypridina-derived luciferase structural gene linked downstream of a GAL4 responsive sequence designed such that its expression was controlled by this chimeric protein, were prepared. Also, a Renilla-derived luciferase expression plasmid pRL-CMV having a viral expression promoter for constitutive intracellular expression was prepared as a plasmid for the correction of transfection efficiency. On the other hand, DMEM containing 10% FBS was used as a medium for CV-1 cells (African green monkey kidney-derived). The CV-1 cells were seeded at 4.5×10^5 cells over a 100-mm Petri dish and cultured in an incubator at 37° C. in a 5% CO2 environment.
(1-2) Transformation of CV-1 Cell
The CV-1 cells thus cultured for 24 hours were cotransfected with 2.0 μg of pM-PPARγ, 4.0 μg of p4×UASg-tk-luc, and 0.04 μg of pRL-CMV to transform the CV-1 cells. The transformation was carried out by the liposome method using LipofectAMINE(R) Reagent (a product of Invitrogen Corp.). After the transformation operation, the cells were cultured at 37° C. for 3.5 hours in a 5% CO2 environment.
(1-3) Addition of Test Sample
The CV-1 cells thus incubated were recovered by trypsin treatment, and […] thereof was inoculated at a concentration of 1×10^5 cells/mL to a 96-well plate. Each test sample was diluted with DMEM containing 4% FBS to adjust its concentration to twice the final concentration, and […] thereof was added to the 96-well plate mentioned above. DMSO was used as a control substance. After the addition of the test sample or the control substance (DMSO), the mixture was incubated at 37° C. for 24 hours in a 5% CO2 environment.
(1-4) Measurement of Luciferase Activity
The luciferase activity was measured using Dual-Luciferase(R) Reporter Assay System (a product of Promega K.K.). The culture solution was removed from the 96-well plate. The cells were washed with PBS(−), and moisture was removed therefrom using a paper towel. To the cells, […] of a cell lysis solution (Passive Lysis Buffer) was added, and the 96-well plate was shaken for 15 minutes. The cell extract was transferred at […] to a 96-well luminoplate. A luminescent substrate solution was added thereto at […]. The luminescence intensity based on the luciferase was measured for a measurement time set to 10 seconds using a luminometer (Micro Lumat Plus, a product of Berthold Japan Co., Ltd.).
The PPARγ-activating effect of the test sample was evaluated on the basis of a ratio (%) relative to controls. In order to correct transfection efficiency, the measured Cypridina luciferase activity value (A) was divided by the measured Renilla luciferase activity value (B) to determine a value (A/B). The average A/B value of the control group was calculated and defined as 100. The A/B value of the test sample was calculated, and the ratio (%) of this value to the average value of the controls was used as the ability of the test sample to activate PPARγ.
Their PPARγ ligand activity was measured in the same way as in Example 7 except that the incubation time after the test sample addition was set to 48 hours. The values shown in the table below and the ordinate of the drawing depict the ratio (%) of the activity of each synthesized product to the activity of the control substance (DMSO). In Table 1 and FIG. 13, these various butenolide compounds used as test samples were each indicated by the functional group of R^2 in the formula (1).

[2] = tested on: C57BL/6J mice fed with a high-fat diet; experiment: Amounts of subcutaneous fat and visceral fat in dietary-induced obesity mouse model; type: in vivo; settings: 85 days, relative to increase in control group over normal group
Experimental: For each individual of the male C57BL/6J mice after lapse of 85 days into the test of Example 9, blood was collected under anesthesia with 2% isoflurane, and the mice were then euthanized. Inguinal subcutaneous fat, epididymal fat, perirenal fat, and mesenteric fat were collected from each individual. The weight of each fat was measured, and the average fat weights of each test group were determined.
The ordinate of the drawing depicts the measured weight (g) of each fat tissue. Each bar of the bar graph indicates the normal group, the control group, the 5H4PB 0.037 μg/kg/day administration group, the 5H4PB 0.01 mg/kg/day administration group, the rosiglitazone 0.037 μg/kg/day administration group, and the rosiglitazone 10 mg/kg/day administration group from the left to the right. […] Specifically, increase in the amount of each fat tissue was inhibited by approximately 35% for the inguinal subcutaneous fat, approximately 18% for the epididymal fat, approximately 13% for the perirenal fat, and approximately 16% for the mesenteric fat in the test group administered 0.037 μg/kg/day of 5H4PB, while increase in the amount of each fat tissue was inhibited by approximately 34% for the inguinal subcutaneous fat, approximately 15% for the epididymal fat, approximately 13% for the perirenal fat, and approximately 40% for the mesenteric fat in the test group administered 0.01 […] of 5H4PB, with respect to the amount of each fat tissue increased in the control group due to the high-calorie diet (the value determined by subtracting the fat tissue weight of the normal group from the fat tissue weight of the control group). Thus, 5H4PB administered at a low dose was confirmed to have subcutaneous fat and visceral fat accumulation inhibitory effects.

[3] = 0.01 μg/kg/day (so in the source)

SMILES: O=C1C=C(c2ccccc2)C(O)O1 (stereo not drawn) [5H4PB, 5-hydroxy-4-phenylbutenolide]
- PPARγ ligand activity of butenolide compounds (in words) ([1]; Example 8, incubation 48 hours, Table 1 and FIG. 13): high activity in a low concentration range
- PPARγ ligand activity of synthesized product ([1]; final concentration 3.5 μM, incubation 24 hours, FIG. 12): high PPARγ ligand activity
- PPARγ ligand activity, ratio (%) of the activity of each synthesized product to the activity of the control substance (DMSO) ([1]; test sample concentration 0.032 μg/mL, incubation 48 hours): 100%
- PPARγ ligand activity, ratio (%) of the activity of each synthesized product to the activity of the control substance (DMSO) ([1]; test sample concentration 0.08 μg/mL, incubation 48 hours): 80%
- PPARγ ligand activity, ratio (%) of the activity of each synthesized product to the activity of the control substance (DMSO) ([1]; test sample concentration 0.16 μg/mL, incubation 48 hours): 120%
- PPARγ ligand activity, ratio (%) of the activity of each synthesized product to the activity of the control substance (DMSO) ([1]; test sample concentration 0.4 μg/mL, incubation 48 hours): 120%
- PPARγ ligand activity, ratio (%) of the activity of each synthesized product to the activity of the control substance (DMSO) ([1]; test sample concentration 0.8 μg/mL, incubation 48 hours, * = twice or more vs control, p<0.05): 220* %
- PPARγ ligand activity, ratio (%) of the activity of each synthesized product to the activity of the control substance (DMSO) ([1]; test sample concentration 2 μg/mL, incubation 48 hours, * = twice or more vs control, p<0.05): 370* %
- PPARγ ligand activity, ratio (%) of the activity of each synthesized product to the activity of the control substance (DMSO) ([1]; test sample concentration 4 μg/mL, incubation 48 hours, * = twice or more vs control, p<0.05): 520* %
- PPARγ ligand activity, ratio (%) of the activity of each synthesized product to the activity of the control substance (DMSO) ([1]; test sample concentration 10 μg/mL, incubation 48 hours, * = twice or more vs control, p<0.05): 710* %
- increase in the amount of epididymal fat inhibited [2, 3]: approximately 15%
- increase in the amount of inguinal subcutaneous fat inhibited [2, 3]: approximately 34%
- increase in the amount of mesenteric fat inhibited [2, 3]: approximately 40%
- increase in the amount of perirenal fat inhibited [2, 3]: approximately 13%
- increase in the amount of epididymal fat inhibited ([2]; 0.037 μg/kg/day): approximately 18%
- increase in the amount of inguinal subcutaneous fat inhibited ([2]; 0.037 μg/kg/day): approximately 35%
- increase in the amount of mesenteric fat inhibited ([2]; 0.037 μg/kg/day): approximately 16%
- increase in the amount of perirenal fat inhibited ([2]; 0.037 μg/kg/day): approximately 13%
